Source: patent publication US10807951B2, “mTORC1 modulators” (THE REGENTS OF THE UNIVERSITY OF CALIFORNIA, priority 2017, dated 2020)
“Also recorded” adds a separate entry of the source.

Assays:
autophagy = experiment: Autophagy induction in tissues of injected mice; format: in vivo; conditions: 100 mg/kg vs rapamycin 10 mg/kg, heart, skeletal muscle, kidney
mTOR = experiment: Immunofluorescence of mTOR and LAMP2 in HEK-293A cells; format: cell-based; conditions: 2 h
Procedure: FIGS. 6A-6D. CC 1-44 inhibits mTORC1 signaling and activates autophagy. (FIG. 6A) Visual IP experiment monitoring binding of GFP-RagB to RFP-tagged, bead-bound Lamtor complex. […] (FIG. 6B) Immunofluorescence for endogenous RagA and LAMP2 in HEK-293A cells treated with DMSO, YP 1-44 or CC 1-44 for 2 h. […] (FIG. 6C) Immunofluorescence for endogenous mTOR and LAMP2 in HEK-293A cells treated with DMSO or CC 1-44 for 2 h. […] (FIG. 6D) Immunoblotting for autophagic markers LC3b and p62 from HEK-293A cells treated with DMSO (lane 1) or CC 1-44 (lane 3) for 2 h.
Next, we investigated the mechanism of mTORC1 inhibition by CC-1-44 using visual IP and immunofluorescence. […] Indeed, when we visualized RagA and RagC localization in CC 1-44-treated cells, their localization to LAMP2-positive lysosomes was increased, not decreased as for YP 1-44 (FIG. 6B). This observation pointed to a different mechanism for mTORC1 inactivation by CC 1-44. Rather than disrupting the integrity of the LAMTOR-Rag assembly, CC 1-44 prevents its activation, causing it to strongly accumulate at the lysosome in a conformation that is unable to bind to mTORC1.

[1] = molecular target: T1, Lamtor (a.k.a. Ragulator) and Rag GTPase protein complexes (Homo sapiens, UniProt O43504); experiment: Visual-IP of Rag GTPase binding to bead-bound Lamtor (Ragulator); conditions: for disruption of Rag GTPase-Lamtor interaction (Visual IP): in vitro, GFP-RagB on RFP-Ragulator beads, 50 μM compound in small-scale screens
T1 construct: RFP (on the Ragulator complex); GST (large-scale screen); on the Ragulator complex; made in house; host or cells: HEK293T (small-scale screen), HEK293F (large-scale screen), transient transfection
Text: To assay for mTORC1-inhibiting compounds, we in vitro-reconstituted the interaction between the Lamtor (a.k.a. Ragulator) and Rag GTPase protein complexes, which are essential for amino acid-driven mTORC1 recruitment (and thus activation) to the lysosome (24, 30, 36, 37). We sequentially coated agarose beads with RFP-tagged Ragulator and with GFP-tagged Rag GTPases, resulting in Rag binding to the beads via their interaction with Lamtor. This method, which we call ‘Visual co-immunoprecipitation’ (Visual-IP) is essentially a binding reaction at equilibrium, in which the interaction between the two binding partners can be easily scored as color overlap between the bead-bound, red-tagged Lamtor and the soluble, green-fluorescent Rag GTPases. Interaction between the two proteins results in red-green color overlap (‘yellow beads’), whereas when the interaction is disrupted, partial or complete dispersion of the green signal in the surrounding buffer is observed (‘red beads’) (FIG. 1A and FIG. 1B). This assay could easily be scaled up and implemented in 384-well plates, which were imaged with the aid of an automated fluorescence microscope (FIG. 1C).
HEK293T cells were plated on 15 cm plates at 10 million cells per plate. 24 hours later, the cells were transfected using 500 μL OptiMEM transfection media, 60 μL polyethyleneimine (PEI, Sigma) and 10 μg total DNA. The transfection mix was incubated for 15 minutes and then added directly to the cell media. 48 hours later, the media was removed, and the cells were washed three times with PBS. The cells were scraped from the plate and collected in 10 mL PBS. The samples were centrifuged for 5 minutes at 1500 g at 4° C. The cell pellets were then resuspended in 1 mL Triton lysis buffer (1% Triton X-100, 130 mM NaCl, 2 mM EGTA, 2.5 mM MgCl2, 25 mM HEPES, pH 7.4, 10% glycerol, protease inhibitor (Pierce)), and allowed to rotate at 4° C. for 20 minutes. The samples were then centrifuged at 13000 g for 2 minutes, and the supernatant was separated for immunoprecipitation. 50 μL of washed anti-FLAG affinity beads (Sigma) were added to the supernatant and the sample was rotated at 4° C. for 2 hours. After immunoprecipitation, the samples were washed twice in Triton lysis buffer, once in high salt (500 mM NaCl) lyso sucrose buffer, and once in normal salt lyso sucrose buffer (250 mM sucrose, 10 mM KCl, 2 mM EGTA, 2.5 mM MgCl2, 25 mM HEPES, pH 7.4, 10% glycerol, protease inhibitor (Pierce)). Each wash consisted of rotating with the wash buffer for 5 minutes at 4° C. and subsequent centrifugation at 2000 g for 1 minute. For elution off FLAG beads, 3×-FLAG peptide in Phosphate Buffered Saline (PBS) was added to the sample, [RL2] and the sample was allowed to rotate overnight at 4° C. […]

mTORC1 = mTORC1 signaling in HeLa cells by immunoblotting; format: cell-based; conditions: for mTORC1-mediated signaling (p-ULK1, pS6K1, p-4E-BP1): amino acid stimulation
Procedure: HeLa cells were subjected to starvation/refeeding protocols as described in the previous section, then lysed in ice-cold lysis buffer (150 mM NaCl, 20 mM HEPES [pH 7.4], 2 mM EDTA, 0.3% CHAPS or 1% Triton X-100, and one tablet of EDTA-free protease inhibitors per 50 ml). Cell lysates were cleared by centrifugation at 13,000 rpm for 10 minutes in a microfuge. Samples were normalized to a total concentration of 1 mg/mL protein and prepared using sample buffer at 1×, then boiled for 5 minutes at 95 C. Samples were loaded onto 10% or 12% SDS-Page gels, and analyzed by immunoblotting.
Several of these compounds were also directly tested for their ability to inhibit mTORC1 signaling in immunoblotting-based assays. […] Thus, we pursued CC 1-44 for further characterization.

Structure (SMILES) | autophagy induction compared to rapamycin (autophagy) | autophagy induction compared to rapamycin (autophagy; listed as C 1-44) | mTOR/mTORC1 localization to lysosomes (mTOR) | disruption of Rag GTPase-Lamtor interaction (Visual IP) [1] | phosphorylation of canonical mTORC1 substrates S6K1, 4E-BP1 and ULK1 (mTORC1; 10 μM) | potency of mTORC1 blockade relative to YP 1-44 (mTORC1; immunoblotting) | displacement of Rag and Lamtor interactions ([1]; 10 μM, dose-responsive) | disruption of Rag GTPase-Lamtor interaction (Visual IP) ([1]; listed as YP1-44) | mTORC1-mediated signaling (p-ULK1, pS6K1, p-4E-BP1) (mTORC1) | mTORC1-mediated signaling (p-ULK1, pS6K1, p-4E-BP1) (mTORC1; listed as YP1-44)
C=CC(=O)N1CCc2c(OCc3cc(C(F)(F)F)cc(C(F)(F)F)c3)cccc21 [CC 1-44] | superior potency to rapamycin | much stronger autophagy induction as compared to rapamycin | induces dissociation of mTOR from lysosomes; also recorded: completely dispersed from lysosomes | does not; also recorded: did not break the LAMTOR-Rag interaction in vitro | completely inhibited | potency comparable to YP 1-44 | – | – | – | –
C=CC(=O)n1ccc2ccccc21 [YP 1-44] | – | – | completely dispersed from lysosomes | causes RagB dissociation from Lamtor; also recorded: disrupted the interaction | – | – | ~50% | dispersion of the GFP-RagB signal | completely inhibited | suppresses mTORC1 activation by amino acids
